Laboratory results: patent US11591331B2, “PARP1 inhibitors and uses thereof” (Xinthera, Inc., priority 2021, dated 2023)

Experiments:
[1] = system: MDA-MB-436 (mutated BRCA1) cell lines; test: Cell growth inhibition assay (CellTiter-Glo cell viability, 7 days); type: cell-based; conditions: Homo sapiens, 168 h, MDA-MB-436 cells
[2] = system: DLD-1 BRCA2(−/−); test: as above; type: cell-based; conditions: Homo sapiens, 168 h, DLD-1 BRCA2(-/-) cells

| SMILES | EC50 [1] [nM] | EC50 [2] [nM] |
| --- | --- | --- |
| CCc1cc2ncc([C@@H](C)N3CCN(c4ccc(C(=O)NC)nc4)CC3)cc2[nH]c1=O (single isomer, unassigned) [Example 20] |  | 4.1 |
| CCc1cc2ncc([C@H](C)N3CCN(c4ccc(C(=O)NC)nc4)CC3)cc2[nH]c1=O (single isomer, unassigned) [Example 21] | 0.9 | 1.7 |
| CCc1cc2ncc(CN3CCN(c4ccc(C(=O)N[C@H]5CCCOC5)nc4)CC3)cc2[nH]c1=O (single isomer, unassigned) [Example 53] | 0.92 | 2.4 |
| CNC(=O)c1ccc(N2CCN(Cc3cnc4c(c3)[nH]c(=O)c3ccoc34)[C@@H]3C[C@@H]32)cn1 (single isomer, unassigned) [Example 85] | 13 | 14 |
| [2H]C([2H])([2H])NC(=O)c1ccc(N2CCN(Cc3cnc4cc(CC)c(=O)[nH]c4c3)[C@@H]3C[C@@H]32)cn1 (single isomer, unassigned) [Example 96] | 1.7 | 2.9 |
| CNC(=O)c1ccc(N2CCN(Cc3cnc4cc(C)c(=O)[nH]c4c3)[C@H]3C[C@H]32)c(C#N)n1 (single isomer, unassigned) [Example 98] | 1.2 | 2 |
| CNC(=O)c1ccc(N2CCN(Cc3cnc4cc(C)c(=O)[nH]c4c3)[C@H]3C[C@H]32)cn1 (single isomer, unassigned) [Example 99] | 11 | 16 |
| [2H]C([2H])([2H])NC(=O)c1ccc(N2CCN(Cc3cnc4cc(C5CC5)c(=O)[nH]c4c3)[C@H]3C[C@H]32)cn1 (single isomer, unassigned) [Example 107] | 2.5 | 9.1 |
| CNC(=O)c1ccc(N2CCN(Cc3cnc4cc(C5CC5)c(=O)[nH]c4c3)[C@H]3C[C@H]32)cn1 (single isomer, unassigned) [Example 110] | 3.3 | 5.7 |
| CCc1cc2ncc(CN3CCN(c4ccc(C(=O)NC5CC5)nc4)[C@@H]4C[C@@H]43)cc2[nH]c1=O (single isomer, unassigned) [Example 111] | 1.8 | 4.6 |
| CNC(=O)c1ccc(N2CCN([C@H](C)c3cnc4cc(C)c(=O)[nH]c4c3)C[C@H]2C)cn1 (single isomer, unassigned) [Example 122] | 11 | 46 |
| CNC(=O)c1ccc(N2CCN([C@@H](C)c3cnc4cc(C)c(=O)[nH]c4c3)CC2)cn1 (single isomer, unassigned) [Example 124] | 17 | 7.5 |
| CNC(=O)c1ccc(N2CCN(Cc3cnc4cc([C@@H]5CC5(F)F)c(=O)[nH]c4c3)CC2)cn1 (single isomer, unassigned) [Example 143] | 12 | 13 |
| CNC(=O)c1ccc(N2CCN(Cc3ccc4c5c(c(=O)[nH]c4c3)CCO5)CC2)cn1 [Example 18, N-methyl-5-[4-({4-oxo-2H,3H,5H-furo[3,2-c]quinolin-7-yl}methyl)piperazin-1-yl]pyridine-2-carboxamide] | 2.3 | 5.1 |
| CCc1cc2ncc(CN3CCN(c4ccc(-c5ncc[nH]5)nc4)CC3)cc2[nH]c1=O [Example 19, 3-ethyl-7-({4-[6-(1H-imidazol-2-yl)pyridin-3-yl]piperazin-1-yl}methyl)-1H-1,5-naphthyridin-2-one] | 1.8 | 3.7 |
| CCc1cc2ncc(CN3CCN4c5ccc(C(=O)NC)nc5OC[C@@H]4C3)cc2[nH]c1=O [Example 22B, (10S)-12-[(7-ethyl-6-oxo-5H-1,5-naphthyridin-3-yl)methyl]-N-methyl-8-oxa-1,6,12-triazatricyclo[8.4.0.0^{2,7}]tetradeca-2,4,6-triene-5-carboxamide] | 160 | 490 |

Continued by falling EC50 [2], values first:

| EC50 [1] [nM] | EC50 [2] [nM] | SMILES |
| --- | --- | --- |
| 20 | 45 | CNC(=O)c1ncc(N2CCN(Cc3cnc4cc(C5CC5)c(=O)[nH]c4c3)[C@H]3C[C@H]32)cc1F (single isomer, unassigned) [Example 113] |
| 35 | 43 | CNC(=O)c1ccc(N2CCN([C@@H](C)c3cnc4cc(C)c(=O)[nH]c4c3)C[C@H]2C)cn1 (single isomer, unassigned) [Example 121] |
| 14 | 37 | Cc1cc2ncc(CN3CCN(c4ccc(C(=O)NC5CC5)nc4)[C@@H]4C[C@@H]43)cc2[nH]c1=O (single isomer, unassigned) [Example 109] |
| 39 | 33 | CCc1cc2ncc(CN3CC(N(C)c4ccc(C(=O)NC)nc4)C3)cc2[nH]c1=O [Example 26, 5-({1-[(7-ethyl-6-oxo-5H-1,5-naphthyridin-3-yl)methyl]azetidin-3-yl}(methyl)amino)-N-methylpyridine-2-carboxamide] |
| 7.3 | 15 | Cc1cc2ncc([C@@H](C)N3CCN(c4ccc(C(=O)NC5CC5)nc4)CC3)cc2[nH]c1=O (single isomer, unassigned) [Example 127] |
| 4.3 | 14 | Cc1cc2ncc([C@H](C)N3CCN(c4ccc(C(=O)NC5CC5)nc4)CC3)cc2[nH]c1=O (single isomer, unassigned) [Example 126] |
| 5.1 | 11 | CCc1cc2ncc(CN3CCN(c4ccc(C(=O)NC)c(=O)n4C)[C@@H]4C[C@@H]43)cc2[nH]c1=O (single isomer, unassigned) [Example 114] |
| 13 | 8.5 | CNC(=O)c1ccc(N2CCN([C@H](C)c3cnc4cc(C)c(=O)[nH]c4c3)CC2)cn1 (single isomer, unassigned) [Example 125] |
| 3.3 | 7.8 | O=C(NC1CC1)c1ccc(N2CCN(Cc3cnc4cc(C5CC5)c(=O)[nH]c4c3)[C@H]3C[C@H]32)cn1 (single isomer, unassigned) [Example 112] |
| 4.4 | 7.3 | CCc1cc2ncc(CN3CCN(c4cnc(C(=O)NC)c(F)c4)[C@H]4C[C@H]43)cc2[nH]c1=O (single isomer, unassigned) [Example 69] |
| 5.2 | 6.6 | CCc1cc2ncc(CN3CCN(c4ccc(NC(=O)[C@H]5CCO5)nc4)CC3)cc2[nH]c1=O (racemic) [Example 103] |
| 4.3 | 6.4 | [2H]C([2H])([2H])NC(=O)c1ccc(N2CCN(Cc3cnc4cc(CC)c(=O)[nH]c4c3)[C@H]3C[C@H]32)cn1 (racemic) [Example 90] |
| 2.2 | 6 | CCc1cc2ncc(CN3CCC(c4cnc(C(=O)NC)c(F)c4)CC3)cc2[nH]c1=O [Example 23, 5-{1-[(7-ethyl-6-oxo-5H-1,5-naphthyridin-3-yl)methyl]piperidin-4-yl}-3-fluoro-N-methylpyridine-2-carboxamide] |
| 3.8 | 4.2 | CCc1cc2ncc(CN3CCN(c4ccc(C(=O)NC5COC5)nc4)[C@@H]4C[C@@H]43)cc2[nH]c1=O (single isomer, unassigned) [Example 88] |
| 1 | 2.8 | CCc1cc2ncc(CN3CCN(c4ccc(C(=O)N[C@@H]5CCCOC5)nc4)CC3)cc2[nH]c1=O (single isomer, unassigned) [Example 54] |
| 0.98 | 1.6 | CCc1cc2ncc(CN3CCN(c4ccc(C(=O)NC)nc4C#N)[C@H]4C[C@H]43)cc2[nH]c1=O (single isomer, unassigned) [Example 76] |
| 0.5 | 1.4 | CNC(=O)c1ccc(N2CCN(Cc3cnc4cc(C)c(=O)[nH]c4c3)CC2)c(C#N)n1 [Example 37] |
